Results: patent publication US20020137781A1, “Preparation and use of enantiomer-pure 2,4-disubstituted oxazolines” (priority 1999, published 2002)

Tests used:
Aphis craccivora = assay: Effect against Aphis craccivora; format: in vivo; settings: 400 ppm spray on pea seedlings, 20° C., 3 and 6 days
Protocol: Pea seedlings are infected with Aphis craccivora, subsequently sprayed with a spray mixture containing 400 ppm of active ingredient, and then incubated at 20° C. 3 and 6 days later, they are evaluated. The percentage reduction of the population (% response) is determined by comparing the number of dead aphids on the treated plants with those on the untreated plants.

Aonidiella aurantii = assay: Effect against Aonidiella aurantii; format: in vivo; settings: 400 ppm, potato tubers immersed, 10 to 12 weeks
Protocol: Potato tubers are colonised with crawlers of Aonidiella aurantii. After about 2 weeks, the potatoes are immersed in an aqueous emulsion or suspension spray mixture containing 400 ppm of active ingredient. After the tubers have dried off, they are incubated in a plastic container. Evaluation is effected 10 to 12 weeks later by comparing the survival rate of the crawlers of the first secondary generation of the treated population with that of untreated control batches.

Ctenocephalides felis = assay: In vitro effect on eggs, larvae, or pupae of the cat flea Ctenocephalides felis; settings: 15, 1.5, 0.15 and 0.015 ppm test solutions, after 21 days
Protocol: Acetonic test solutions are prepared containing test substances in concentrations of 15, 1.5, 0.15 and 0.015 ppm. 9.9 ml of each test solution is mixed with 14.85 g of culture medium for flea larvae and dried for about 12 hours. The slightly clumped, dry culture medium is mechanically pulverized again until it is homogeneous and free-flowing. It is then transferred to bottles for the breeding of fleas. To each bottle, 100 to 200 flea eggs are added, the bottles are loosely closed with a wad of cottonwool and placed in an incubator at 25 to 26° C. and a relative humidity of about 60%. After 21 days, the effect of the test substances in the different concentrations is evaluated and the lowest effective concentration determined using a stereomicroscope. The activity is evaluated on the basis of the hatching rate, larva development, pupation, and the hatching of young fleas. Enantiomers A of formula (I) show a pronounced effect in this test.

[1] = system: Musca domestica of an OP-resistant strain; assay: Effect against Musca domestica; format: in vivo; settings: 250 ppm in sugar cube, 25° C., after 24 hours, read-out: mortality rate (response)
Protocol: A sugar cube is treated with a solution of the test substance in such a way that the concentration of test substance in the sugar, after drying over night, is 250 ppm. The cube treated in this way is placed on an aluminium dish with wet cottonwool and 10 adult Musca domestica of an OP-resistant strain. It is covered with a beaker and incubated at 25° C. The mortality rate is determined after 24 hours.

Spodoptera littoralis = assay: Effect on Spodoptera littoralis; format: in vivo; settings: 400 ppm spray on soybean plants, third-instar larvae, three days
Protocol: Young soybean plants are sprayed with an aqueous emulsion spray mixture containing 400 ppm of active ingredient. After the spray deposit has dried, the plants are colonised with 10 third-instar larvae of Spodoptera littoralis and placed in a plastic container. Three days later they are evaluated. The percentage reduction of the population and of the feeding damage (% response) is determined by comparing the total number of dead caterpillars and the feeding damage on the treated plants with those on the untreated plants.

Panonychus ulmi = assay: Effect against Panonychus ulmi (resistant to organophosphates und carbaryl); format: in vivo; settings: 400 ppm spray on apple seedlings, after 14 days
Protocol: Apple seedlings are colonised with adult females of Panonychus ulmi. After seven days, the infected plants are sprayed with an aqueous emulsion spray mixture containing 400 ppm of the test compound until they are dripping wet, and cultivated in the greenhouse. After 14 days, they are evaluated. The percentage reduction of the population (% response) is determined by comparing the number of dead spider mites on the treated plants with those on the untreated plants.

Bemisia tabaci = assay: Effect against Bemisia tabaci; format: in vivo; settings: 400 ppm spray on dwarf bean plants with nymphs, after a further 14 days
Text: Dwarf bean plants are placed in gauze cages and colonised with adults of Bemisia tabaci. Following oviposition, all adults are removed. Ten days later, the plants and the nymphs thereon are sprayed with an aqueous emulsion spray mixture containing 400 ppm of the active ingredient. After a further 14 days, the percentage hatching rate of the eggs is compared with that of untreated controls.

Anthonomus grandis = assay: Effect against Anthonomus grandis; format: in vivo; settings: 400 ppm spray on cotton plants, adults, three days
Protocol: Young cotton plants are sprayed with an aqueous emulsion spray mixture containing 400 ppm of active ingredient. After the spray coating has dried on, the cotton plants are colonised with 10 adult Anthonomus grandis and placed in a plastic container. Three days later they are evaluated. The percentage reduction of the population and of the feeding damage (% response) is determined by comparing the total number of dead beetles and the feeding damage on the treated plants with those on the untreated plants.

Heliothis virescens [2] = assay: Effect on Heliothis virescens caterpillars; format: in vivo; settings: 400 ppm spray on soya plants, first-instar larvae, six days
Protocol: Young soya plants are sprayed with an aqueous emulsion spray mixture containing 400 ppm of active ingredient. After drying of the spray deposit, the soya plants are colonised with 10 first-instar larvae of Heliothis virescens and placed in a plastic container. Six days later they are evaluated. The percentage reduction of the population and percentage reduction in feeding damage (% response) is determined by comparing the number of dead larvae and the extent of feeding damage on the treated plants with those on the untreated plants.

Heliothis virescens [3] = assay: Ovicidal effect on Heliothis virescens; format: in vivo; settings: 400 ppm in acetone/water, eggs on filter paper immersed, after 6 days
Protocol: Eggs of Heliothis virescens deposited on filter paper are immersed briefly in a test solution comprising 400 ppm of the active ingredient to be tested in acetone/water. After the test solution has dried, the eggs are incubated in Petri dishes. After 6 days, the percentage hatching rate of the eggs is compared with that for untreated controls (% reduction in hatching rate).

Plutella xylostella = assay: Effect against Plutella xylostella caterpillars; format: in vivo; settings: 400 ppm spray on cabbage plants, third-instar caterpillars, three days
Protocol: Young cabbage plants are sprayed with an aqueous emulsion spray mixture containing 400 ppm of active ingredient. After the spray coating has dried on, the cabbage plants are colonised with 10 third-instar caterpillars of Plutella xylostella and placed in a plastic container. Three days later they are evaluated. The percentage reduction of the population and percentage reduction in feeding damage (% response) is determined by comparing the number of dead larvae and the extent of feeding damage on the treated plants with those on the untreated plants.

Diabrotica balteata = assay: Effect on Diabrotica balteata larvae; format: in vivo; settings: 400 ppm spray on corn seedlings, second instar larvae, six days
Protocol: Corn seedlings are sprayed with an aqueous emulsion spray mixture containing 400 ppm of active ingredient. After drying of the spray deposit, the corn seedlings are colonised with 10 second instar larvae of Diabrotica balteata and placed in a plastic container. Six days later they are evaluated. The percentage reduction of the population (% response) is determined by comparing the number of dead larvae on the treated plants with those on the untreated plants.

SMILES: Fc1cccc(F)c1C1=NC(c2ccc(-c3ccc(C(F)(F)F)cc3)cc2)CO1 (single isomer, unassigned) [1.1, 2-(2,6-difluoro-phenyl)-4-(4′-trifluoromethylbiphenyl-4-yl)-4,5-dihydro-oxazole]
- percentage reduction of the population (% response) (Aphis craccivora): more than 80%
- response (survival rate of the crawlers of the first secondary generation vs untreated) (Aonidiella aurantii): more than 80%
- effect on hatching rate, larva development, pupation and hatching of young fleas (in words) (Ctenocephalides felis): most active test substance
- mortality at 250 ppm [1]: > 80%
- percentage reduction of the population and of the feeding damage (% response) (Spodoptera littoralis): more than 80%
- percentage reduction of the population (% response) (Panonychus ulmi): more than 80%
- response (percentage hatching rate of the eggs vs untreated controls) (Bemisia tabaci): more than 80%
- percentage reduction of the population and of the feeding damage (% response) (Anthonomus grandis): more than 80%
- percentage reduction of the population and percentage reduction in feeding damage (% response) (Heliothis virescens [2]): more than 80%
- % reduction in hatching rate (response) (Heliothis virescens [3]): more than 80%
- percentage reduction of the population and percentage reduction in feeding damage (% response) (Plutella xylostella): more than 80%
- percentage reduction of the population (% response) (Diabrotica balteata): more than 80%
